Consider 1 molecule from patent US8809344B2, “Compounds, compositions, and methods for control of hepatitis C viral infections” (priority 2008, dated 2014).

Like-named read-outs stand apart in the source and are kept apart here.

The test system of series [1] is stable genotype 1b (Con1 strain) subgenomic replicon. The series can be described thus: EC50 in Clone VI cells, quantitative RT-PCR of HCV RNA. It is filed as cell-based. To be noted: Hepatitis C virus, 72 hour. The protocol: (§1) Inhibition of HCV replication by compound AP0080978 (enantiomer 2 from Example 1) was also assayed by exposing cells harboring either HCV genotype 1a, HCV genotype 1b, HCV genotype 2a replicons. […] Final DMSO percentage was 1% in a total volume of 1 ml. After a 72 hour treatment period, total RNA was extracted, quantified via RiboGreen™ assay (Invitrogen-Molecular Probes, Eugene, Oreg., USA), and equivalent amounts of RNA were subjected to quantitative RT-PCR to quantify HCV RNA levels. […] For each replicate culture, HCV RNA levels were measured by blot hybridization and normalized to β-actin RNA levels. Cytotoxicity was measured using an established neutral red dye uptake assay (Korba and Gerin (1992) Antiviral Res 19:55; Okuse et al (2005) Antiviral Res 65: 23). […] Activity and toxicity against genotype 2a was evaluated in Huh7 cells harboring a stable hRluc-containing subgenomic genotype 2a replicon containing sequence from both J6 and JFH1 strains. […]
(§2) Additional compounds of formula (I) shown in FIG. 1 were also shown to inhibit HCV RNA replication. The effects of various compounds of formula (I) on HCV RNA replicon levels were determined by measuring HCV replicon RNA levels in cells treated with various concentrations of the compounds. […] Total RNA was extracted 72 hours later, and HCV and GAPDH RNA levels were quantified via quantitative RT-PCR. […]

The nature of series [2]: Cell viability (CC50) in the Clone VI RT-PCR experiment. In kind it is cell-based. To be noted: human, Experiment 1, genotype 1b. The protocol: as §1, §2
Series [3] deals with replicon RNA from 80978-resistant and control Clone A cells in Huh7b cells. Put plainly: Sensitivity of Huh7b cells electroporated with total RNA from resistant or control Clone A cells. It is filed as cell-based, hepatitis C virus. An excerpt: To determine whether resistance was replicon-associated, total RNA was extracted from 80978-resistant and control cells and re-introduced via electroporation into naïve Huh7b cells, the parental cell line of Clone A cells. Electroporated cells that harbored replicon were selected with Geneticin™, pooled, and assayed for sensitivity to 80978.

Series [4] relates to genotype 2a replicon with the L1809F mutation. The series can be described thus: Genotype 2a replicon with L1809F mutation. It is filed as cell-based. The conditions noted are these: Hepatitis C virus. The protocol:
Since leucine at amino acid 1809 in the genotype 1b replicon was mutated from a phenylalanine residue to a leucine or a valine residue to confer resistance to 80978, and the residue at the corresponding position in the parental genotype 2a replicon is leucine, mutagenesis was carried out to determine whether a phenylalanine at this position in the genotype 2a replicon was sufficient to confer sensitivity to 80978.
(In antiviral work, replicon cells carry a viral genome segment that copies itself.)

For the molecule `O=C(NCc1cccs1)c1nn2c(c1Cl)N[C@H](c1ccco1)C[C@@H]2C(F)(F)F` (single isomer, unassigned) [Compound 80978], the EC50 (usually the concentration needed to bring the measured effect to its halfway point) was 0.9 µM in series [1] (FIG. 2, compounds other than 80978 as racemates, read-out: EC50 for inhibition of HCV RNA replication); 0.9 to 1.75 µM in series [1] (Experiment 1, genotype 1b, RT-PCR, read-out: EC50); above 25 µM in series [4]. For the same molecule, in series [2], the CC50 (as a rule, the concentration that lowers cell viability or growth by half) at 72 h is above 100 µM. The results for the “sensitivity to 80978” value in series [3] (Huh7b cells electroporated with total RNA from 80978-resistant cells) and in series [3] (Huh7b cells electroporated with total RNA from control cells) were “maintained resistance” and “sensitive”, respectively.
